Test results taken from patent US20180243421A1, “IMMUNOSTIMULATING AGENT” (AJINOMOTO CO., INC., priority 2015, published 2018).

Columns and labels:
[1] = tested on: anti-OVA-specific IgG1 subclass antibody; experiment: Adjuvant activity after primary immunization: anti-OVA-specific IgG1 subclass antibody in serum (Examples 13-18); assay type: in vivo, BALB/c mice; details: OVA 5 μg + 0.256 μmol in 5% αCD saline s.c., serum after 12 days; for anti-OVA-specific IgG1 subclass antibody production after primary immunization: Example 13
Experimental: 8-Week-old female BALB/c mice were divided into groups (N=6), and each group was primarily immunized by dorsal-subcutaneous administration of (1) ovalbumin (OVA) (5 μg) dissolved in saline as an antigen (OVA single administration group), (2) OVA (5 μg) and SZ83 (0.256 μmol) dissolved or dispersed in 5% αCD-added saline (SZ83 administration group), (3) OVA (5 μg) and SZ84 (0.256 μmol) dissolved or dispersed in 5% αCD-added saline (SZ84 administration group), (4) OVA (5 μg) and SZ86 (0.256 μmol) dissolved or dispersed in 5% αCD-added saline (SZ86 administration group), (5) OVA (5 μg) and SZ89 (0.256 μmol) dissolved or dispersed in 5% αCD-added saline (SZ89 administration group), (6) OVA (5 μg) and SZ90 (0.256 μmol) dissolved or dispersed in 5% αCD-added saline (SZ90 administration group), each per mouse. After 12 days, blood samples were collected under anesthesia, and the obtained serum samples were subjected to the measurement of an anti-OVA-specific IgG1 subclass antibody.
Measurement Method of Concentration of anti-OVA-specific IgG1 Subclass Antibody and anti-OVA-specific IgG2a Subclass Antibody
To a 96 well plate was added 5 μg/ml OVA at 100 μl/well, and the mixture was incubated at 4° C. overnight. After incubation, the mixture was washed three times with 200 μl of PBS-T (PBS+0.05% (v/v) Tween 20) per well, and blocked with 100 μl of 5% FCS/PBS solution per well at room temperature for 1 to for 2 hr. Thereafter, the mixture was washed three times with PBS-T (200 μl/well), a diluted serum sample (100 μl/well) or the same amount of 5% FCS/PBS solution as a control was added, to and the mixture was incubated at 37° C. for 1 hr. To calculate concentration of the antibody, the standard of an anti-OVA-specific IgG1 subclass antibody diluted with 2% FCS/PBS solution was added at 100 ng/ml, 50 ng/ml, 25 ng/ml, 12.5 ng/ml, 6.25 ng/ml, 3.125 ng/ml, 1.56 ng/ml, 0.781 ng/ml, 0.391 ng/ml, 0.195 ng/ml, 0.098 ng/ml, 0 ng/ml, per 1 well. When an anti-OVA-specific IgG2a subclass antibody was measured, the standard of an anti-OVA-specific IgG2a subclass antibody was added at 50 ng/ml, 25 ng/ml, 12,5 ng/ml, 6.25 ng/ml, 3.125 ng/ml, 1.56 ng/ml, 0.781 ng/ml, 0.391 ng/ml, 0.195 ng/ml, 0.098 ng/ml, 0.049 ng/ml, 0 ng/ml, per 1 well. […] Thereafter, the mixture was washed five times with PBS-T (200 μl/well), a diluted anti-biotin-HRP antibody was added (100 μl/well), and the mixture was incubated at 37° C. for another 30 min. Thereafter, the mixture was washed five times with PBS-T (200 μl/well), TMB substrate solution was added (100 μl/well), and the mixture was incubated at room temperature for 10- for 15 min. Thereafter, a reaction quenching liquid (2N sulfuric acid solution) was added (50 μl/well) to discontinue a color developing reaction, and the absorbance (OD Value=450 nm) was measured by a microplate reader. A standard curve was drawn from the measured OD values, and the concentration was calculated.
8-Week-old female BALB/c mice were divided into groups (N=6), and each group was primarily immunized by dorsal-subcutaneous administration of (1) ovalbumin (OVA) (5 μg) dissolved in saline as an antigen (OVA single administration group), (2) OVA (5 μg) and SZ92 (0.256 μmol) dissolved or dispersed in 5% αCD-added saline (SZ92 administration group), (3) OVA (5 μg) and SZ94 (0.256 μmol) dissolved or dispersed in 5% αCD-added saline (SZ94 administration group), (4) OVA (5 μg) and SZ95 (0.256 μmol) dissolved or dispersed in 5% αCD-added saline (SZ95 administration group), (5) OVA (5 μg) and SZ96 (0.256 μmol) dissolved or dispersed in 5% αCD-added saline (SZ96 administration group), each per mouse. After 12 days, blood samples were collected under anesthesia, and the obtained serum samples were subjected to the measurement of anti-OVA-specific IgG1 subclass antibody.

[2] = tested on: anti-influenza IgA antibody; experiment: Transnasal influenza vaccine adjuvant activity: anti-influenza IgA antibody in nasal cavity wash; assay type: in vivo, BALB/c mice; details: Example 4, influenza HA vaccine 20 μl, SZ62 1 μg, Poly(I:C) 5 μg, two weeks from secondary immunization

Compound: CCCCCCOC(=O)[C@H](CCCNC(=N)N)NC(=O)CCCCC.Cl [SZ130, N^2-hexanoyl-L-arginine hexyl ester hydrochloride salt]
- anti-OVA-specific IgG1 subclass antibody production after primary immunization as compared to the OVA single administration group ([1]; Example 18): tended to increase

Compound: polyinosinic polycytidylic acid [Poly(I:C), reference compound]
- anti-influenza IgA antibody production in nasal cavity wash as compared to the influenza vaccine single administration group [2]: a significant increase was not found

Compound: CCCCCCCCCCCCCCCC(=O)N[C@@H](Cc1c[nH]cn1)C(=O)OC [SZ94, N-hexadecanoyl-L-histidine methyl ester]
- anti-OVA-specific IgG1 subclass antibody production after primary immunization as compared to the OVA single administration group ([1]; Example 14): tended to increase

Compound: COC(=O)[C@H](CC(C)C)NC(C)=O [SZ83, N-acetyl-L-leucine methyl ester]
- anti-OVA-specific IgG1 subclass antibody production after primary immunization [1]: show a tendency to increase

Compound: CCCCCCCCCCCCCCCC(=O)N[C@@H](CO)C(=O)OC [SZ96, N-hexadecanoyl-L-serine methyl ester]
- anti-OVA-specific IgG1 subclass antibody production after primary immunization as compared to the OVA single administration group ([1]; Example 14): tended to increase

Compound: CCCCCCCCCCCCCCCCCCCCCC(=O)N[C@@H](CCCNC(=N)N)C(=O)OCCCCCC.Cl [SZ121, N^2-docosanoyl-L-arginine hexyl ester hydrochloride salt]
- anti-OVA-specific IgG1 subclass antibody production after primary immunization as compared to the OVA single administration group ([1]; Example 17): significantly increased

Compound: CCCCCCCCCCCCCCCCCCCCCC(=O)N[C@@H](CC(C)C)C(=O)N(CC)CC [SZ125, N^2-docosanoyl-N^1,N^1-diethyl-L-leucinamide]
- anti-OVA-specific IgG1 subclass antibody production after primary immunization as compared to the OVA single administration group ([1]; Example 17): tended to increase

Compound: CCCCCCCCCCCCCCCC(=O)N[C@@H](CC(C)C)C(=O)OC(C)(C)C [SZ89, N-hexadecanoyl-L-leucine tert-butyl ester]
- anti-OVA-specific IgG1 subclass antibody production after primary immunization [1]: show a tendency to increase

Compound: CCCCCCCCCCCCCCCCCCCCCC(=O)N[C@@H](CCCNC(=N)N)C(=O)N(CC)CC.Cl [SZ129, N^2-docosanoyl-N^1,N^1-diethyl-L-arginine amide hydrochloride salt]
- anti-OVA-specific IgG1 subclass antibody production after primary immunization as compared to the OVA single administration group ([1]; Example 18): significantly increased

Compound: CCCCCCCCCCCCCCCC(=O)N[C@@H](CCCNC(=N)N)C(=O)N(CC)CC.Cl [SZ110, N^2-hexadecanoyl-N^1,N^1-diethyl-L-arginine amide hydrochloride salt]
- anti-OVA-specific IgG1 subclass antibody production after primary immunization as compared to the OVA single administration group ([1]; Example 16): tended to increase

Compound: CCCCCCCCCCCCCCCC(=O)N[C@@H](CCC(=O)O)C(=O)OCCCCCC [SZ134, N-hexadecanoyl-L-glutamic acid hexyl ester]
- anti-OVA-specific IgG1 subclass antibody production after primary immunization as compared to the OVA single administration group ([1]; Example 18): tended to increase

Compound: CCCCCC(=O)N[C@@H](CC(C)C)C(=O)OC [SZ84, N-hexanoyl-L-leucine methyl ester]
- anti-OVA-specific IgG1 subclass antibody production after primary immunization [1]: show a tendency to increase

Compound: CCCCCCCCCCCCCCCC(=O)N1CCC[C@H]1C(=O)OC [SZ95, N-hexadecanoyl-L-proline methyl ester]
- anti-OVA-specific IgG1 subclass antibody production after primary immunization as compared to the OVA single administration group ([1]; Example 14): tended to increase

Compound: CCCCCCCCCCCCCCCCCCCCCC(=O)N[C@@H](CCC(=O)O)C(=O)OCCCCCC [SZ135, N-docosanoyl-L-glutamic acid hexyl ester]
- anti-OVA-specific IgG1 subclass antibody production after primary immunization as compared to the OVA single administration group ([1]; Example 18): tended to increase

Compound: CCCCCCCCCCCCCCCCCCCCCC(=O)N[C@@H](CCCNC(=N)N)C(N)=O.Cl [SZ128, N^2-docosanoyl-L-arginine amide hydrochloride salt]
- anti-OVA-specific IgG1 subclass antibody production after primary immunization as compared to the OVA single administration group ([1]; Example 18): significantly increased

Compound: CCCCCCCCCCCCCCCCCCCCCC(=O)N[C@@H](CC(C)C)C(=O)OCCCCCC [SZ124, N-docosanoyl-L-leucine hexyl ester]
- anti-OVA-specific IgG1 subclass antibody production after primary immunization as compared to the OVA single administration group ([1]; Example 17): tended to increase
